Results reported in patent publication US20030104975A1, “Cofactor-based screening method for nuclear receptor modulators and related modulators” (priority 2001, published 2003).

Columns and labels:
PPARγ DE / p300Nt-GST = molecular target: T1, PPARγ DE / p300Nt-GST (Homo sapiens, UniProt P37231); experiment: GST pull-down assay, PPARγ DE with p300Nt-GST; format: binding; details: anti-histidine blot, rosiglitazone 10^-4 M, FMOC-L-Leu 10^-3 M, compared to DMSO
T1 construct: made in house; host or cells: E. coli BL21 (DE3) for PPARgamma, pET15b; E. coli for the GST fusion, pGex4-T1
T1 sequence (Q09472 2-516 partner limits assumed, one chain of several): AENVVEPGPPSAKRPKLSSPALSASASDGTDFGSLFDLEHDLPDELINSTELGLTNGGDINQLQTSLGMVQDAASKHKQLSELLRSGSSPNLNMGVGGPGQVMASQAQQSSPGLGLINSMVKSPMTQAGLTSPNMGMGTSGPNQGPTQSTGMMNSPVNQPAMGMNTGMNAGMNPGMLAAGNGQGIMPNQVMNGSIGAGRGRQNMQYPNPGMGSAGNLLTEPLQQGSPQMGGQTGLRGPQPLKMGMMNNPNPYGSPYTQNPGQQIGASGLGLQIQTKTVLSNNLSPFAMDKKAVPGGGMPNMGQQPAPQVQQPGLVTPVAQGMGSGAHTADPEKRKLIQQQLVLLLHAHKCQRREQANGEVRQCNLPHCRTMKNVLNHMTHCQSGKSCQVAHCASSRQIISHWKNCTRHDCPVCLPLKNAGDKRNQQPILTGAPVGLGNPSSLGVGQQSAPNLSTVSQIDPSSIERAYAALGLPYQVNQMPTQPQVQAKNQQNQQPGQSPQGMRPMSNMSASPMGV
Text: (§1) The beads were then washed and the samples separated on SDS-PAGE. Blots were developed with anti-histidine antibodies.
(§2) Production of proteins. The p300Nt-GST, SRC-1-GST and TIF2-GST fusion proteins were generated by cloning the N-terminal part of the cDNA coding for the p300 protein (amino acids 2 to 516), the region comprised between amino acids 568 and 780 of SRC-1 (SEQ ID NO: 03), and the domain between amino acids 618 and 826 of TIF2 (SEQ ID NO: 01), respectively, downstream of the glutathione-S-transferase (GST) protein in the pGex4-T1 vector (Pharmacia, Orsay, France). The fusion proteins were then expressed in E. coli and purified on a glutathione affinity matrix (Pharmacia). 6×-histidine-tagged human PPAR-gamma LBD (residues 203-477 of SEQ ID NO: 06) was overproduced in E. coli BL21 (DE3) using the pET15b as an expression plasmid (Novagen, Madison, Wis.) and purified by metal ion affinity chromatography on a Co^2+-loaded HiTrap Chelating column (Pharmacia Biotech, Peapack, N.J.) followed by gel filtration chromatography on a HiLoad Supcrdex 100 column (Pharmacia). The protein concentration was determined by the Bradford method (1976, Anal Biochem 72, 248-254).
(§3) Pull-down experiments. […] The beads were then washed 4 times with pull-down buffer and boiled in 4×-sample buffer. The samples were separated by 12% acrylamide SDS-PAGE and transferred to nitrocellulose membranes.

[1] = molecular target: T2, PPARγ DE/SRC-1-GST complexes (Homo sapiens, UniProt P37231); details: GST pull-down, anti-histidine blot; rosiglitazone 10^-4 M, FMOC-L-Leu 10^-3 M; compared to DMSO
T2 sequence (P37231 203-477 isoform P37231-2): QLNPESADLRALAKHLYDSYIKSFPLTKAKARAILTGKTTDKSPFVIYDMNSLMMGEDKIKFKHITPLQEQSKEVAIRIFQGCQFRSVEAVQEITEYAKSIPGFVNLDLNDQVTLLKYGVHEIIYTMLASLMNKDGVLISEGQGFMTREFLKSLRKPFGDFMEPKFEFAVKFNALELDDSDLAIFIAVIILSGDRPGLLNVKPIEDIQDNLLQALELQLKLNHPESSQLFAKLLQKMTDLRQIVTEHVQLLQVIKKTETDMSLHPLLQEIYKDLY
Text: as §1, §2, §3

PPARγ DE / TIF2-GST = molecular target: T3, PPARγ DE / TIF2-GST (Homo sapiens, UniProt P37231); experiment: GST pull-down assay, PPARγ DE with TIF2-GST; format: binding; details: anti-histidine blot, rosiglitazone 10^-4 M, FMOC-L-Leu 10^-3 M, compared to DMSO
T3 construct: made in house; host or cells: E. coli BL21 (DE3) for PPARgamma, pET15b; E. coli for the GST fusion, pGex4-T1
T3 sequence (P37231 203-477 isoform P37231-2): T2 sequence (P37231 203-477 isoform P37231-2)
Text: as §1, §2, §3

BDGal4-hPPARγ DE / TIF2 = molecular target: T4, BDGal4-hPPARγ DE / TIF2 (Homo sapiens, UniProt P37231); experiment: Mammalian two-hybrid assay in RK13 cells, Gal4-hPPARγ DE with TIF2; format: cell-based; details: 24 h, FMOC-L-Leu 10^-5M, rosiglitazone 10^-7M
T4 construct: expressed in transfected cells; host or cells: RK13 cells (ATCC)
T4 sequence (P37231 238-503 limits assumed): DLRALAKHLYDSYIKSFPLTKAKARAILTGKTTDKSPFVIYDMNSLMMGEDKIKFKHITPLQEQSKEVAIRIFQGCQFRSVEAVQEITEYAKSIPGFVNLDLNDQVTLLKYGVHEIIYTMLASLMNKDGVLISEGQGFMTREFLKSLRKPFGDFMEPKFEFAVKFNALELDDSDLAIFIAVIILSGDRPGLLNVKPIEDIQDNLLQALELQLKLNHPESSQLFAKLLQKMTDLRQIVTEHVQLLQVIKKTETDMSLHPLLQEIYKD
Experimental: (§4) FIG. 2: Interactions between PPAR-gamma and cofactors in cultured mammalian cells. Mammalian two-hybrid interaction between PPAR-gamma and the various co-activators in RK13 cells co-transfected with an expression vector for BDGal4-hPPARγ DE, pGL3-(Gal4)5TKLuc reporter construct, pCMV-βGal, as a control of transfection efficiency, and different expression vectors for different cofactors. Cells were grown during 24 h in the presence or absence of the indicated compound. Luciferase activity has been normalized. […] Each point was performed in triplicate. Bars not sharing similar superscripts are statistically different from each other (P<0.05, Fisher's Post-hoc analysis of 2×2 ANOVA with ligands and constructs as factors).
(§5) RK-13 cells were obtained from ATCC (Rockville, Md.). Cells were maintained in Dulbecco's modified Eagle's minimal essential medium (DMEM) supplemented with 10% fetal calf serum (FCS), L-glutamine, and antibiotics. Transfection studies with luciferase (luc.) reporter constructs were carried out as described previously (Oberfield et al., 1999, Proc Natl. Acad Sci USA 96, 6102-6106). The pGL3-(Gal4)5TKLuc reporter constructs are described elsewhere (Gelman et al., 1999, J. Biol. Chem. 274, 7681-7688). […]

BDGal4-hPPARγ DE / SRC-1 = molecular target: T5, BDGal4-hPPARγ DE / SRC-1 (Homo sapiens, UniProt P37231); experiment: Mammalian two-hybrid assay in RK13 cells, Gal4-hPPARγ DE with SRC-1; format: cell-based; details: 24 h, FMOC-L-Leu 10^-5M
T5 construct: expressed in transfected cells; host or cells: RK13 cells (ATCC)
T5 sequence (Q15788 whole entry partner, one chain of several, the tested form may be a part): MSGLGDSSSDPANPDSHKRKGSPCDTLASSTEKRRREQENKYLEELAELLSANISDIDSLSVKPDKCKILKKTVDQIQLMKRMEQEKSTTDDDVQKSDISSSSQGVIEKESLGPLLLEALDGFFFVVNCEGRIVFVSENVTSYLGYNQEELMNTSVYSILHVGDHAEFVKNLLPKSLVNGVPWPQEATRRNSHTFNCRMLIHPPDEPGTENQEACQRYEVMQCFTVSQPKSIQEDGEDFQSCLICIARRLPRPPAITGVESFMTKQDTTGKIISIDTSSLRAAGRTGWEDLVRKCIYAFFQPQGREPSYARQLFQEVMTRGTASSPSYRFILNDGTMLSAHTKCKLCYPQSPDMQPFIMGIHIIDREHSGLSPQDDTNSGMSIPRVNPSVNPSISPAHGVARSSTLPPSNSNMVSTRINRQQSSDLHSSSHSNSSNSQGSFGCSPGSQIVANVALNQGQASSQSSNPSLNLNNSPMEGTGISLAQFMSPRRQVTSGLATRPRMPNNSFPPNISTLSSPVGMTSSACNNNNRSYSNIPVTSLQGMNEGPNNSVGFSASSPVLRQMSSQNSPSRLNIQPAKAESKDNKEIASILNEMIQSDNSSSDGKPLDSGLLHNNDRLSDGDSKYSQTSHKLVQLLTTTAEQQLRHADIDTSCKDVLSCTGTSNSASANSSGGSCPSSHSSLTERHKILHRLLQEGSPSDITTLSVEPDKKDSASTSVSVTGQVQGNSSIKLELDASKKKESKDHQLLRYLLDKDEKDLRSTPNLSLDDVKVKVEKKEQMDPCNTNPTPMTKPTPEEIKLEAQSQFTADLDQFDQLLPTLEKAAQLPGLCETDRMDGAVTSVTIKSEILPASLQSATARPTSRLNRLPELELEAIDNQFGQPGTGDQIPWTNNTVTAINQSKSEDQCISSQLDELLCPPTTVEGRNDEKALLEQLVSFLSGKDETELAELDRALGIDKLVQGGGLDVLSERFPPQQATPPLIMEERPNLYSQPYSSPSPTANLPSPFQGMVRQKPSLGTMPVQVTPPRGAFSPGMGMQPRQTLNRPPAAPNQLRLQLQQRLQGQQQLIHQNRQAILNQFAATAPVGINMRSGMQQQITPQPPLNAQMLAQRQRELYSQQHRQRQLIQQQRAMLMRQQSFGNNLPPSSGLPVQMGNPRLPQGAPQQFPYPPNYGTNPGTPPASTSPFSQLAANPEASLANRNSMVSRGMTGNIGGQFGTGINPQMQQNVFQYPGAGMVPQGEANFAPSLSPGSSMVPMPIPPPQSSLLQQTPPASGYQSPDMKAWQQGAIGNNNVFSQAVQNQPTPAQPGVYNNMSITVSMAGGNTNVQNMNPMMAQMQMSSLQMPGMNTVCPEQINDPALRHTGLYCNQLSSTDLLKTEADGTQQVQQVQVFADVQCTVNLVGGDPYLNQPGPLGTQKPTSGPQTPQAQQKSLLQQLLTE
Experimental: as §4, §5

BDGal4-hPPARγ DE / p300 = molecular target: T6, BDGal4-hPPARγ DE / p300 (Homo sapiens, UniProt P37231); experiment: Mammalian two-hybrid assay in RK13 cells, Gal4-hPPARγ DE with p300; format: cell-based; details: 24 h, FMOC-L-Leu 10^-5M
T6 construct: expressed in transfected cells; host or cells: RK13 cells (ATCC)
T6 sequence (P37231 238-503 limits assumed): T4 sequence (P37231 238-503 limits assumed)
Experimental: as §4, §5

3T3-L1 cells = experiment: 3T3-L1 adipocyte differentiation assay; format: cell-based, murine; details: FMOC-L-Leu 10^-5 M
Experimental: A: Expression of adipocyte markers during differentiation of 3T3-L1 cells treated with different PPAR-gamma agonists. Confluent 3T3-L1 cells were incubated with 2 μM insulin, 1 μM dexamethasone, and 0.25 mM isobuthyl methyl xanthine for two days. […] RNA was isolated from 3T3-L1 cells after different times of differentiation induction. Blots were hybridized with DNA probes that specifically bind to 36B4 (to control for RNA loading), lipoprotein lipase (LPL), or aP2.
Cells were stained with Oil Red O after 6 days of treatment.
3T3-L1 cells (ATCC, Rockville, Md.) were grown to confluence in medium A (Dulbecco's modified Eagle's Medium with 10% fetal calf serum, 100 units/ml penicillin, and 100 μg/ml streptomycin). Confluent cell were incubated in medium A containing 2 μM insulin, 1 μM dexamethasone, and 0.25 mM isobuthyl methyl xanthine for two days. Then, the cells were incubated in medium A in presence or absence of PPARγ agonist for 4 days, changing the medium every 2 days. Adipogenesis was evaluated by analysis of the expression of adipocyte-specific markers and by staining of lipids with Oil Red O (Chawla & Lazar, 1994, Proc. Natl. Acad. Sci. USA 91, 1786-1790).
RNA was isolated from 3T3-L1 cells by the acid guanidinium thiocyanate/phenol/chloroform method (Chomczynski & Sacchi, 1987, Anal. Biochem. 162, 156-159). Northern blot analysis of total cellular RNA was performed as described (Auwerx et al., 1989, Mol. Cell. Biol. 9, 2298-2302). Lipoprotein lipase (LPL), aP2 and 36B4 were used as probes (Lefebvre et al., 1997, Arterioscler.Thromb.Vasc.Biol. 17, 1756-1764; Laborda, 1991, Nucl. Acids Res. 19, 3998; Graves et al., 1992, Mol. Cell. Biol 12, 1202-1208).

[2] = Northern blot, extent close to rosiglitazone 10^-7 M

Compound: CC(C)C[C@H](NC(=O)OCC1c2ccccc2-c2ccccc21)C(=O)O [FMOC-L-Leu, FMOC-L-leucine]
- interaction between the PPARγ DE and p300Nt-GST (PPARγ DE / p300Nt-GST): increased the interaction
- formation of PPARγ DE/SRC-1-GST complexes [1]: induced the formation
- interaction between TIF2 and the PPARγ DE (PPARγ DE / TIF2-GST): not with FMOC-L-Leu
- transactivation (luciferase) in the presence of TIF2 (BDGal4-hPPARγ DE / TIF2): no significant increase in transactivation
- transactivation (luciferase) in the presence of SRC-1 (BDGal4-hPPARγ DE / SRC-1): much more pronounced and significant induction
- transactivation (luciferase) in the presence of p300 (BDGal4-hPPARγ DE / p300): no significant increase in transactivation
- neutral lipid accumulation (Oil Red O staining) (3T3-L1 cells; 6 day incubation, rosiglitazone 10^-7 M): capable of inducing neutral lipid accumulation
- LPL mRNA levels (3T3-L1 cells; [2]): significantly stimulated
- aP2 mRNA levels (3T3-L1 cells; [2]): significantly stimulated
